# Publication PMC3351391, “Inhibition Mechanism and Model of an Angiotensin I-Converting Enzyme (ACE)-Inhibitory Hexapeptide from Yeast (Saccharomyces cerevisiae)” (PLoS ONE, 2012)
# Entries after “also recorded” stand apart in the source; their conditions may differ. No end group written: not given here.
# Tests used:
# ACE [1] = molecular target: T1, ACE (Oryctolagus cuniculus, UniProt P12822); assay: ITC titration of HHL into ACE in presence of inhibitor; assay type: binding; settings: 0.024 µmol/L ACE and 0.13 µmol/L TPTQQS titrated with 1.55 mmol/L HHL; 37°C; pH 8.3
# T1 construct: purchased Sigma, USA
# T1 sequence (P12822 34-1310): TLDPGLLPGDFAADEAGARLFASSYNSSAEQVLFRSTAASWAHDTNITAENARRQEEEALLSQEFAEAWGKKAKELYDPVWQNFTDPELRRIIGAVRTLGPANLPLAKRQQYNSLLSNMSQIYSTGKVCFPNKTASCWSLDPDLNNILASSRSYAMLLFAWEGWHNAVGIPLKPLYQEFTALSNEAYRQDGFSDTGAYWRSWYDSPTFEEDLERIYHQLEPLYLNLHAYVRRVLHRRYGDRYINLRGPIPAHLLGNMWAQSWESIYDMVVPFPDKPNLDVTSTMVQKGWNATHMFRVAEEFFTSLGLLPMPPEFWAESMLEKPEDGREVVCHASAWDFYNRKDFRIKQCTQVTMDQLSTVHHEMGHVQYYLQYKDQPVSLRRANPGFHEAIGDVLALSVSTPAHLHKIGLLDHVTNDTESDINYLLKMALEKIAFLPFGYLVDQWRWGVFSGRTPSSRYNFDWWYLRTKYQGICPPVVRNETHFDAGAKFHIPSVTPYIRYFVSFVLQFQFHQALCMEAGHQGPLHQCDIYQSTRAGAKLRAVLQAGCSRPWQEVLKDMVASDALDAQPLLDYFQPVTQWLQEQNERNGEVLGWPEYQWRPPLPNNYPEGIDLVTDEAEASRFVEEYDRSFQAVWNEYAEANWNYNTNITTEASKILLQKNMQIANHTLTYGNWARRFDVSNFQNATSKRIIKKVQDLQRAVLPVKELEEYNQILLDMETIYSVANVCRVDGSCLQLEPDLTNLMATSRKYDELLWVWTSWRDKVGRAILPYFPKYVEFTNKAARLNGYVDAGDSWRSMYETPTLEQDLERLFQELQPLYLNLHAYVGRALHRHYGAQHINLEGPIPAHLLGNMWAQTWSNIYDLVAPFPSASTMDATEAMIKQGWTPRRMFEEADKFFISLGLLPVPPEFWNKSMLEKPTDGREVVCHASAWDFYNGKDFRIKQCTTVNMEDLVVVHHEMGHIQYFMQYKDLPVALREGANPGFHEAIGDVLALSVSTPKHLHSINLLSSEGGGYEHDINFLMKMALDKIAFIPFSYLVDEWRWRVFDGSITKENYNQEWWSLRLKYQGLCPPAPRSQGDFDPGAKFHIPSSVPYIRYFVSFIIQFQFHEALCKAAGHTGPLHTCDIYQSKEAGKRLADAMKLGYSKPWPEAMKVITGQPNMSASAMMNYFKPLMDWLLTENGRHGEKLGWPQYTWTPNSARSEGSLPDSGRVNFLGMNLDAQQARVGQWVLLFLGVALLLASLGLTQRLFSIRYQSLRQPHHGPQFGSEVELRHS
# Description: The isothermal titration calorimetry (ITC) experiments were carried out using a Nano ITC Low Volume System (TA Instruments-Waters LLC., USA) with a 190 µL cell. All of the experiments were performed at 37°C. ACE was prepared by diluting the stock solution in a buffer of the appropriate pH; the substrate was dissolved in the same buffer as the enzyme. In a control experiment, the ITC cell was filled with 0.024 µmol/L ACE (250 µL), and the ACE solution was titrated with 1.55 mmol/L HHL. The injection volume was […], and the time between two injections was 300 s during which the substrate was completely hydrolyzed. In the inhibition experiment, the ITC cell was filled with 0.024 µmol/L ACE and 0.13 µmol/L TPTQQS (250 µL), and the solution was titrated with 1.55 mmol/L HHL. The titration conditions were the same as those for the control experiment.
# ACE [2] = assay: Assay of ACE-inhibitory activity (HPLC, hippuric acid from HHL); assay type: biochemical; settings: peptide 0.25 mmol/L (Fig. 4); HHL substrate, 0.1 mol/L Na-borate buffer pH 8.3; 5 min pre-incubation, 1 h at 37°C; RP-HPLC of HA at 228 nm
# Description: (§1) The determination of ACE-inhibitory activity was performed using a High Performance Liquid Chromatography (HPLC) method, modified from a spectrophotometric method. HHL (Sigma, USA) was dissolved in 0.1 mol/L Na-borate buffer (pH 8.3) containing 1.55 mmol/L NaCl. ACE (Sigma, USA) was dissolved in the same buffer at a concentration of 0.2 U/mL. A mixture containing 10 µL of inhibitor and 5 µL of ACE solution was incubated at 37°C for 5 min, 50 µL of HHL solution was added, and the solution was incubated for 1 h. The reaction was stopped by adding 100 µL of 0.1% trifluoroacetic acid (TFA) (Sigma, USA). The amount of hippuric acid (HA) yielded by ACE catalysis was measured by RP-HPLC (GX-281, Gilson, France) with an octadecylsilyl (ODS) column (4.6 mm×250 mm, 5 µm, Agilent, USA). The mobile phase was 60% methanol (V/V) containing 0.1% TFA at a flow rate of 0.8 mL/min. The effluent was monitored at 228 nm. The ACE-inhibitory activity was calculated using Equation (1) as follows: [drawing 1] (1) where A is the content of HA generated in the presence of an ACE inhibitor, B is the content of HA generated without an ACE inhibitor, and C is the content of HA generated without ACE.
# ACE [3] = settings: cited from earlier work; for mode of ACE inhibition (literature): compete with the substrate for binding to the active site
# Description: In this study, we investigated the inhibition mechanism of the hexapeptide on the basis of its sequence to provide a reference for the design of drugs that target such enzymes as ACE. || To determine the inhibitory mechanism, Lineweaver-Burk plots were determined for the ACE-inhibitory peptide from yeast (TPTQQS). […] Thus, the peptide can combine with the ACE molecule to produce a dead-end complex, regardless of whether a substrate molecule is bound or not. The complex between ACE and TPTQQS can prevent the formation of the reaction product, HA. […] However, the amino acid sequence of this peptide is not in accordance with the results of structure-activity correlation studies on ACE-inhibitory peptides. […] In the present study, we demonstr ...
# ACE [4] = assay: Inhibition kinetics of ACE (Lineweaver-Burk plots, HHL substrate); assay type: biochemical; settings: 100 and 200 µg/mL inhibitor; HHL 0.78, 1.55, 3.10 mM; Na-borate pH 8.3; 37°C
# Description: as §1, with “The mobile phase was 60% methanol (V/V) containing 0.1% TFA at a flow rate of 0.8 mL/min.” left out, “(1) where A is the content of HA generated in the presence of an ACE inhibitor, B is the content of HA generated without an ACE inhibitor, and C is the content of HA generated without ACE.” left out
# Inhibition kinetics of TPTQQS- Various substrate (HHL) concentrations (0.78 mM, 1.55 mM, and 3.10 mM) were incubated with the ACE solution in the presence or absence of 100 µg/mL, of 200 µg/mL TPTQQS at 37°C. The ACE-inhibitory activity was determined as described as described in the “Assay of ACE-inhibitory activity". The kinetics of ACE in the presence of the inhibitory peptide was determined using Lineweaver-Burk plots.
molecule,measurement,setting,value
TPTQQS [TPTQQS],"affinity of HHL for ACE in the presence of inhibitor, ITC",ACE [1],the same as that in the control experiment
same,mode of ACE inhibition by ITC,ACE [1],non-competitive
same,inhibition rate,ACE [2],72.55%
same,"ACE-inhibitory activity (literature, in words)",ACE [3]; isolated from hydrolyzed yeast protein,effective ACE-inhibitory peptide; also recorded: highly active
same,mode of ACE inhibition (Lineweaver-Burk),ACE [4],non-competitive inhibitor
NCCCC[C@H](N[C@@H](CCc1ccccc1)C(=O)O)C(=O)N1CCC[C@H]1C(=O)O [lisinopril],mode of ACE inhibition (literature),ACE [3],Competitive inhibition
CCOC(=O)[C@H](CCc1ccccc1)N[C@@H](C)C(=O)N1CCC[C@H]1C(=O)O [enalapril],mode of ACE inhibition (literature),ACE [3],Competitive inhibition
C[C@H](CS)C(=O)N1CCC[C@H]1C(=O)O [captopril],mode of ACE inhibition (literature),ACE [3],Competitive inhibition
